Results from EPA's ToxValDB 9.5.

Tested on: Rattus norvegicus
Details: for LOEL / NOEL: oral, gavage
[1] = reproduction developmental, duration: 28 days, inhalation, M, Wistar, generation: P0, P0: Whole Body: Body Weight Change
[2] = short-term, duration: 28 days, inhalation, F, Wistar, Kidney: Creatinine (CREAT)
[3] = short-term, duration: 28 days, inhalation, F, Wistar, Kidney: Creatinine (CREAT) + Multi-Organ: Gamma-Glutamyl Transferase (GGT)
[4] = short-term, duration: 28 days, inhalation, F, Wistar, Kidney: Fluoride, Total Urinary Excretion + Kidney: Fluoride, Urine + Kidney: Urinary Fluoride/Creatinine Ratio + Liver: Liver Weight, …
[5] = short-term, duration: 28 days, inhalation, F, Wistar, Liver: Liver Weight, Absolute + Liver: Liver Weight, Relative + Lung: Lung Histopathology + Lung: Lung Weight, Absolute + Lung: Lung Weight…
[6] = short-term, duration: 28 days, inhalation, F, Wistar, Liver: Total Bilirubin (TBILI)
[7] = short-term, duration: 28 days, inhalation, M, Wistar, Kidney: Creatinine (CREAT) + Whole Body: Body Weight Change + Whole Body: Food Conversion Efficiency + Whole Body: Food Intake
[8] = short-term, duration: 28 days, inhalation, M, Wistar, Kidney: Fluoride, Total Urinary Excretion + Kidney: Fluoride, Urine + Kidney: Urinary Fluoride/Creatinine Ratio + Lung: Lung Histopathology…
[9] = short-term, duration: 28 days, inhalation, M, Wistar, Liver: Albumin (A) + Liver: Triglycerides (TRIG) + Multi-Organ: Cholesterol, Total + Multi-organ: Glucose (GLU)
[10] = short-term, duration: 28 days, inhalation, M, Wistar, Liver: Albumin (A) + Multi-Organ: Glucose (GLU) + Renal: Fluoride, Total Urinary Excretion + Renal: Fluoride, Urine + Renal: Fluoride/…
[11] = short-term, duration: 28 days, inhalation, M, Wistar, Lung: Lung Histopathology + Lung: Lung Weight, Absolute + Lung: Lung Weight, Relative + Spleen: Spleen Weight, Absolute + Spleen: Spleen …
[12] = short-term, duration: 28 days, inhalation, M, Wistar, Whole Body: Body Weight Change
[13] = subchronic, duration: 91 days, inhalation, F, Wistar, Blood: Albumin/Globulin (A/G) Ratio + Liver: Liver Weight, Relative + Multi-Organ: Acyl-CoA Oxidase Activity
[14] = subchronic, duration: 91 days, inhalation, F, Wistar, Kidney: Kidney Weight, Relative + Liver: Albumin (A)
[15] = subchronic, duration: 91 days, inhalation, M, Wistar, Blood: Mean Corpuscular Hemoglobin (MCH) + Liver: Albumin (A) + Liver: Alkaline Phosphatase (ALP) + Liver: Cholesterol (CHOL), Total + Liver…
[16] = subchronic, duration: 91 days, inhalation, M, Wistar, Blood: Mean Corpuscular Hemoglobin (MCH), Recovery + Blood: Mean Corpuscular Volume (MCV) + Blood: Platelet Count (PLT), Recovery + Blood: …
[17] = reproduction developmental, duration: 28 days, inhalation, M, Sprague-Dawley, generation: P0, P0: Other Systems: Bone: Bone Histopathology + P0: Other Systems: Esophagus: Esophagus Histopathology + P0: Other Systems: Eye: Eye …
[18] = reproduction developmental, duration: 50 days, inhalation, F, Sprague-Dawley, generation: P0, P0: Other Systems: Bone: Bone Histopathology + P0: Other Systems: Esophagus: Esophagus Histopathology + P0: Other Systems: Eye: Eye …
[19] = short-term, duration: 3 weeks, inhalation, M/F, Alpk:Albino, Whole Body: Body Weight Change + Whole Body: Clinical Observations
[20] = chronic, duration: 92 days, F, Wistar, kidney: relative kidney weight
[21] = chronic, duration: 92 days, M, Wistar, liver: relative liver weight
[22] = short-term, duration: 28 days, F, Wistar, kidney: absolute kidney weight + kidney: relative kidney weight + liver: absolute liver weight + liver: relative liver weight
[23] = short-term, duration: 28 days, M, Wistar, adrenal gland: absolute adrenal gland weight + adrenal gland: relative adrenal gland weight + testis: relative testis weight + thymus: …
[24] = short-term, duration: 28 days, M, Wistar, liver: relative liver weight + spleen: absolute spleen weight

## O=C(C(F)(F)C(F)(F)F)C(F)(C(F)(F)F)C(F)(F)F [Perfluoro-2-methyl-3-pentanone]
developmental, duration: 13 days, inhalation, M/F, Sprague-Dawley, generation: F1, F1: Uterus: Resorptions, Early + F1: Uterus: Resorptions, Late + F1: Whole Body: Fetal Alterations, Total
  NOAEL: 38800 mg/m3
Reproduction developmental, duration: 4 days, inhalation, F, Wistar, generation: F1, F1: Whole Body: Body Weight Change + F1: Whole Body: Body Weight, Absolute + F1: Whole Body: Clinical Observations + F1: Whole Body: Live …
  NOAEL: 38800 mg/m3
Reproduction developmental, duration: 4 days, inhalation, F, Wistar, generation: P0, P0: Uterus: Estrous Cycle + P0: Whole Body: Body Weight Change + P0: Whole Body: Body Weight, Absolute + P0: Whole Body: Clinical …
  NOAEL: 38800 mg/m3
Reproduction developmental, duration: 13 days, inhalation, F, Sprague-Dawley, generation: P0, P0: Ovary: Corpora Lutea + P0: Ovary: Ovary, Necropsy + P0: Placenta: Normal Placenta + P0: Uterus: Implantation + P0: Uterus: Uterine …
  NOAEL: 38800 mg/m3
Reproduction developmental, duration: 28 days, inhalation, M, Wistar, generation: P0, P0: Epididymis: Epididymis Weight, Absolute + P0: Testis: Testis Weight, Absolute + P0: Whole Body: Body Weight, Absolute + P0: Whole Body: …
  NOAEL: 38800 mg/m3
[1]
  LOAEL: 12900 mg/m3
  NOAEL: 3880 mg/m3
short-term, duration: 28 days, inhalation, F, Wistar, Adrenal: Adrenal Gland Histopathology + Bladder: Urinary Bladder Histopathology + Blood: Albumin/Globulin (A/G) Ratio + Blood: Hematocrit (…
  NOAEL: 259000 mg/m3
short-term, duration: 28 days, inhalation, F, Wistar, Blood: Albumin/Globulin (A/G) Ratio + Blood: Hematology, Unspecified + Liver: Albumin (A) + Liver: Liver Histopathology + Multi-Organ: …
  NOAEL: 245000 mg/m3
[2]
  LOAEL: 259000 mg/m3
  NOAEL: 129000 mg/m3
[3]
  LOAEL: 245000 mg/m3
  NOAEL: 125000 mg/m3
[4]
  LOAEL: 125000 mg/m3
  NOAEL: 49600 mg/m3
[5]
  LOAEL: 129000 mg/m3
  NOAEL: 51700 mg/m3
short-term, duration: 28 days, inhalation, F, Wistar, Liver: Peroxisome Induction + Liver: Phospholipid + Liver: Triglycerides (TRIG) + Spleen: Spleen Weight, Absolute + Spleen: Spleen Weight, …
  LOAEL: 12900 mg/m3
short-term, duration: 28 days, inhalation, F, Wistar, Liver: Peroxisome Induction + Liver: Phospholipid + Spleen: Spleen Weight, Absolute + Spleen: Spleen Weight, Relative
  LOAEL: 12400 mg/m3
[6]
  LOAEL: 51700 mg/m3
  NOAEL: 12900 mg/m3
short-term, duration: 28 days, inhalation, M, Wistar, Adrenal: Adrenal Gland Histopathology + Bladder: Urinary Bladder Histopathology + Blood: Hematocrit (HCT) + Blood: Hemoglobin (HGB) + Blood…
  NOAEL: 259000 mg/m3
short-term, duration: 28 days, inhalation, M, Wistar, Blood: Albumin/Globulin (A/G) Ratio + Blood: Hematology, Unspecified + Kidney: Creatinine (CREAT) + Liver: Phospholipid + Multi-Organ: Gamma…
  NOAEL: 245000 mg/m3
short-term, duration: 28 days, inhalation, M, Wistar, Blood: Albumin/Globulin (A/G) Ratio + Liver: Liver Histopathology + Liver: Liver Weight, Absolute + Liver: Liver Weight, Relative + Liver: …
  LOAEL: 12900 mg/m3
[7]
  LOAEL: 259000 mg/m3
  NOAEL: 129000 mg/m3
[8]
  LOAEL: 125000 mg/m3
  NOAEL: 49600 mg/m3
[9]
  LOAEL: 49600 mg/m3
  NOAEL: 12400 mg/m3
[10]
  LOAEL: 51700 mg/m3
  NOAEL: 12900 mg/m3
short-term, duration: 28 days, inhalation, M, Wistar, Liver: Liver Histopathology + Liver: Liver Weight, Absolute + Liver: Liver Weight, Relative + Liver: Peroxisome Induction
  LOAEL: 12400 mg/m3
[11]
  LOAEL: 129000 mg/m3
  NOAEL: 51700 mg/m3
[12]
  LOAEL: 245000 mg/m3
  NOAEL: 125000 mg/m3
[13]
  LOAEL: 38800 mg/m3
  NOAEL: 12900 mg/m3
subchronic, duration: 91 days, inhalation, F, Wistar, Blood: Albumin/Globulin (A/G) Ratio, Recovery + Blood: Mean Corpuscular Hemoglobin (MCH) + Blood: Mean Corpuscular Volume (MCV) + Blood: Red…
  NOAEL: 38800 mg/m3
[14]
  LOAEL: 12900 mg/m3
  NOAEL: 3880 mg/m3
subchronic, duration: 91 days, inhalation, F, Wistar, Spleen: Spleen Weight, Absolute
  LOAEL: 3880 mg/m3
subchronic, duration: 91 days, inhalation, M, Wistar, Blood: Albumin/Globulin (A/G) Ratio + Kidney: Kidney Weight, Absolute + Kidney: Kidney Weight, Relative + Liver: Liver Weight, Absolute + …
  LOAEL: 3880 mg/m3
subchronic, duration: 91 days, inhalation, M, Wistar, Blood: Albumin/Globulin (A/G) Ratio, Recovery + Brain: Brain Weight, Absolute + Brain: Brain Weight, Relative + Eye: Ophthalmology, …
  NOAEL: 38800 mg/m3
[15]
  LOAEL: 12900 mg/m3
  NOAEL: 3880 mg/m3
[16]
  LOAEL: 38800 mg/m3
  NOAEL: 12900 mg/m3

## FC(F)=C(F)OC(F)(F)C(F)(F)C(F)(F)F [Perfluoropropyl trifluorovinyl ether]
Reproduction developmental, duration: 28 days, inhalation, M, Sprague-Dawley, generation: P0, P0: Cardiovascular: Aorta: Aorta Histopathology + P0: Cardiovascular: Heart: Heart Histopathology + P0: Cardiovascular: Heart: Heart Weight…
  LOAEL: 43900 mg/m3
[17]
  LOAEL: 43900 mg/m3
  NOAEL: 10900 mg/m3
Reproduction developmental, duration: 50 days, inhalation, F, Sprague-Dawley, generation: P0, P0: Cardiovascular: Aorta: Aorta Histopathology + P0: Cardiovascular: Heart: Heart Histopathology + P0: Cardiovascular: Heart: Heart Weight…
  LOAEL: 43900 mg/m3
[18]
  LOAEL: 43900 mg/m3
  NOAEL: 10900 mg/m3
short-term, duration: 3 weeks, inhalation, F, Alpk:Albino, Multi-organ: Uterus and Gonad (Unspecified) Histopathology
  NEL: 54400 mg/m3
short-term, duration: 3 weeks, inhalation, M/F, Alpk:Albino, Blood: Potassium (K), Blood + Blood: Sodium (Na), Blood + Heart: Heart Histopathology + Kidney: Glucose (GLU), Urine + Kidney: Protein, …
  NEL: 54400 mg/m3
[19]
  LEL: 54400 mg/m3
  NEL: 27200 mg/m3
short-term, duration: 3 weeks, inhalation, M, Alpk:Albino, Multi-organ: Epididymis and Gonad (Unspecified) Histopathology
  NEL: 54400 mg/m3

## Cc1ccc(S(=O)(=O)NC(=O)Nc2cccc(OS(=O)(=O)c3ccc(C)cc3)c2)cc1 [Pergafast 201]
[20]
  LOEL: 150 mg/kg-day
  NOEL: 50 mg/kg-day
chronic, duration: 92 days, F, Wistar, liver: absolute liver weight + liver: relative liver weight
  LOEL: 12.5 mg/kg-day
[21]
  LOEL: 150 mg/kg-day
  NOEL: 50 mg/kg-day
[22]
  LOEL: 150 mg/kg-day
  NOEL: 30 mg/kg-day
[23]
  LOEL: 750 mg/kg-day
  NOEL: 150 mg/kg-day
short-term, duration: 28 days, M, Wistar, brain: relative brain weight + liver: absolute liver weight
  LOEL: 30 mg/kg-day
[24]
  LOEL: 150 mg/kg-day
  NOEL: 30 mg/kg-day
